Results: article PMC10872342, “9S1R nullomer peptide induces mitochondrial pathology, metabolic suppression, and enhanced immune cell infiltration, in triple-negative breast cancer mouse model” (Biomedicine & pharmacotherapy = Biomedecine & …, 2023)
Entries after “also recorded” stand apart in the source; their conditions may differ. Ends that are not written are not given here.

What was measured:
4T1.2 cells = assay: LC-MS detection of peptide internalization within cells; type: cell-based, mouse; conditions: 50uM, 2h, PBS wash, lysis, 3KDa filter, 3+ and 4+ forms
Procedure: Supplementary Fig 1: Detection of peptide internalization and stability within cells. (A) LC-MS Graph showing peak of peptide only spike at 1mg/ml final concentration (positive control) (B) Sample-1: 2 × 10^5 4T1.2 cells lysate was filtered through a 3KDa cut-off Amicon protein filters (Millipore) to get rid of proteins larger than 3KDa, followed by LC-MS detection (negative control). (C) Sample-2: 2 × 10^5 4T1.2 cells lysate (50ul) was mixed with the peptide at 1mg/ml final concentration and incubated for 30 mins followed by filtering through 3 KDa cut-off filter and LC-MS detection. (D) Sample-3: 50 ul of filtered cell lysate or Sample-1 was mixed with the peptide at 1mg/ml final concentration and incubated for 30 mins followed by LC-MS detection. (E) Sample-4: Cells were treated with 50uM of peptide and incubated for 2h followed by washing in PBS, lysis, passing through 3KDa protein filter, and detection by LC-MS. […] (G) Enlarged peaks from- C, Sample-2 with (H) extracted ion chromatogram (EIC) peaks of the detected peptide at the exact 3+ and 4+ valance forms (red circles). (I) Enlarged peaks from- E, Sample-4 with (J) extracted ion chromatogram (EIC) peaks of the detected peptide at the exact 3+ and 4+ valance forms (red circles).

[1] = Half-life of peptide 9S1R in serum; type: in vitro ADME; conditions: bovine, fetal bovine serum; peptide spiked into FBS, 37 °C, exposure 30 s, 5, 30, 60, 90 min; 75% ice cold acetonitrile precipitation; HPLC-QTOF MS, log2 EIC peak area vs time; read-out: half-life (t1/2) in fetal bovine serum
Procedure: The half-life of peptide 9S1R was determined by spiking the peptide into fetal bovine serum (FBS) for exposure times of 30 s and 5, 30, 60 or 90 min. During the exposure, FBS containing the spike peptides were incubated at 37 °C. The exposure was halted, and the peptide was extracted from FBS using protein precipitation. Protein precipitation was accomplished using 75% ice cold acetonitrile, followed by incubation at − 20 °C for one hour, and centrifugation at 9000 rpm for 10 min at […]. The supernatant was removed and saved for analysis. Peptide samples were analyzed by High pressure liquid chromatography (HPLC) mass spectrometry (MS) using an ultra-high-resolution Quadrupole Time of Flight (QTOF) instrument (Bruker maxis, Bruker Corporation, Billerica, MA, USA). HPLC mobile phase consisted of 18 MΩ H2O and HPLC grade formic acid and acetonitrile (> 99% purity, Fisher Scientific, Pittsburgh, PA, USA). The electrospray ionization (ESI) source was operated under the following conditions: positive ion mode; nebulizer pressure: 1.2 Bar; flow rate of drying gas (N2): 8 L/min; drying gas temperature: 200 °C; voltage between HV capillary and HV end-plate offset: 3000 V to – 500 V; mass range was set from 250 to 2900 m/z; and the quadrupole ion energy was 4.0 eV. […]

[2] = system: 4T1.2-Luc TNBC tumors in Balb/c mice; assay: Pilot study, 4T1.2-Luc bilateral mammary tumor model, six IP doses; type: in vivo, mouse; conditions: study-1, trehalose only group
From the text: The model was created by orthotopically injecting 4T1.2-Luc cells in the 4th mammary fat pad of Balb/c mice, with 1 × 10^5 cells per mouse. The cell line was developed by Dr. Cheryl L. Jorcyk and expresses the luciferase gene which serves as a luminescent indicator of gene expression or tumorigenesis, making the tumor cell traceable in vivo. Treatment started after the formation of palpable tumors and was detected by in vivo BLI (IVIS, Perkin Elmer) followed by randomization of the animals per group. For evaluating the effect of the peptides on this model, we carried out two separate studies. The first pilot study involved a set of 4 mice per group with bilateral mammary tumors, which received six IP administration of PBS, 9S1R-NulloPT drug at 50 mg/kg, 100 mg/kg body weight or Trehalose, over a period of 2 weeks. The present study includes a set of 7–9 mice per group with unilateral tumors including the same groups as in the pilot study, but received a total of eight injections per mouse over a period of 2 weeks. […]
Supplementary Fig 2: Detailed results from pilot first study with six IP administration of PBS (control), Trehalose, 50mg/kg NulloPT and 100 mg/kg NulloPT in TNBC mice. […] Treatment started after the formation of palpable tumors and was detected by an in vivo BLI system (IVIS, Perkin Elmer) followed by randomization of the animals per group. […]

[3] = system: 4T1.2-Luc TNBC tumors in Balb/c mice; assay: 4T1.2-Luc orthotopic TNBC mouse model, unilateral tumors, eight IP doses; type: in vivo; conditions: trehalose only group, H&E scoring
From the text: The model was created by orthotopically injecting 4T1.2-Luc cells in the 4th mammary fat pad of Balb/c mice, with 1 × 10^5 cells per mouse. The cell line was developed by Dr. Cheryl L. Jorcyk and expresses the luciferase gene which serves as a luminescent indicator of gene expression or tumorigenesis, making the tumor cell traceable in vivo. Treatment started after the formation of palpable tumors and was detected by in vivo BLI (IVIS, Perkin Elmer) followed by randomization of the animals per group. For evaluating the effect of the peptides on this model, we carried out two separate studies. […]
Mice were anesthetized by isoflurane followed by measurement of the tumor length and width using a manual Vernier caliper. This was performed before every drug administration and the tumor volume was calculated using the formula (length × width^2)/2. Body weights were also measured before every dose of the drug.
Whole-body bioluminescence imaging (BLI) using the In Vivo Imaging System (IVIS® Spectrum, Perkin Elmer) was performed to detect in vivo tumor burden and metastasis, as evaluated by the bioluminescence signal from the 4T1.2-Luc cells. […] The images were analyzed by Perkin Elmer software and Aura Version 4.0.7 (Spectral instruments Imaging). […]

Compound | uptake of native untagged peptide inside cells by mass spectrometry (4T1.2 cells) | half-life [1] | tumor size with trehalose alone [2] | immune cell infiltration or margin inflammation on the tumors [3]
RRRRRWCMNW [9S1R] | detected inside cells in two forms; also recorded: available inside the cells | 8.7 min | – | –
OC[C@H]1O[C@H](O[C@H]2O[C@H](CO)[C@@H](O)[C@H](O)[C@H]2O)[C@H](O)[C@@H](O)[C@@H]1O [Trehalose] | – | – | higher than control tumor size | did not show any effect
